The values that follow come from PMC9558053, “Development of a novel high-throughput screen for the identification of new inhibitors of protein S-acylation” (The Journal of Biological Chemistry, 2022).

This assay concerns the target T1, human zDHHC2 (Homo sapiens, UniProt Q9UIJ5).
T1 construct: expressed in transfected cells; host or cells: HEK293T
T1 sequence (Q9UIJ5 1-367): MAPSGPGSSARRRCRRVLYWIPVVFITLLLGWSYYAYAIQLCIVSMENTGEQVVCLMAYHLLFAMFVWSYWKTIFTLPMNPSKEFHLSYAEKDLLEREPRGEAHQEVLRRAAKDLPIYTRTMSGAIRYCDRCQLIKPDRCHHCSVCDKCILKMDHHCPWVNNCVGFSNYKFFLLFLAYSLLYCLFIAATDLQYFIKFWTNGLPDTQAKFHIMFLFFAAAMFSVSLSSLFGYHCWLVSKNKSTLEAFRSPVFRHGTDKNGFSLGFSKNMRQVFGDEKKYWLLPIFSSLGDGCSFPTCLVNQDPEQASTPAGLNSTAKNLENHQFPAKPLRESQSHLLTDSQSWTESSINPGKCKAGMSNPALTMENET
The assay is described as follows: TR-FRET high-throughput assay of zDHHC2 autoacylation (HA-zDHHC2 lipoparticles, NBD-palmitoyl-CoA). It counts as biochemical. The settings on record: Ono; for inhibition at 4.2 µM: compound 4.2 μM; for inhibition at 12.5 µM: compound 12.5 μM. The text has this: S-acylation is a two-step process involving enzyme “autoacylation” (at the cysteine of the DHHC motif) followed by transfer of the acyl chain to a substrate protein. To identify potential inhibitors of S-acylation, we developed an assay measuring enzyme autoacylation and focused on zDHHC2 given its prominent role in synaptic function in the nervous system (Fig. 1A). The assay monitors time-resolved FRET (TR-FRET) between the energy donor terbium cryptate (attached to an antibody recognizing hemagglutinin [HA]-tagged zDHHC2) and the acceptor fluorophore nitrobenzoxadiazole (NBD) (attached to the lipid group). The excitation of the energy donor terbium cryptate (360 nm) followed by its emission at 480 nm results in energy transfer to the acceptor NBD and emission at 539 nm. Enzyme autoacylation by NBD-conjugated palmitoyl-CoA increases the proximity of the terbium cryptate and NBD, leading to an increase in FRET signal. The resulting interaction is quantified as the ratiometric measurement of NBD (539 nm) over terbium (480 nm) emission and constitutes the TR-FRET signal.
Figure 1 High-throughput screen (HTS) for the discovery of chemical compounds modulating human zDHHC2 autoacylation activity: TR-FRET-based assay.A, experimental design of the HTS. HA-tagged zDHHC2 enzyme expressed at the surface of lipoparticles was incubated for 15 min at room temperature (RT) with NBD-tagged palmitoyl-CoA and an anti-HA antibody coupled to terbium (Tb) cryptate. Autoacylation of zDHHC2 on its catalytic cysteine brings closer the FRET donor Tb cryptate bound to the anti-HA antibody to the NBD fluorophore coupled to the palmitate and triggers FRET that can be followed over time (time-resolved FRET [TR-FRET]). B, TR-FRET was measured with increasing concentrations of NBD-palmitoyl-CoA (NBD-C16:0-CoA) and either WT zDHHC2 (left panel) or catalytically dead zDHHC2 C157S (right panel) over a period of 35 min. C, experimental conditions of the HTS screen. About 350,000 compounds were incubated individually in 1536-well plates at a concentration of 4.2 μM with zDHHC2 lipoparticles (42 μg/ml stock) for a few minutes before the addition of a mix containing the Tb cryptate–tagged anti-HA antibody (1:200 dilution) and 1 μM of NBD-palmitoyl-CoA (NBD-C16:0-CoA). TR-FRET was measured after a 15 min incubation at room temperature on a Biotek Synergy Neo apparatus. Results are given as a ratio between the FRET signal measured over a background baseline. D, histogram representation of ONO library screen showing the percentage of activity of zDHHC2 (as measured by TR-FRET) in the presence of each compound. The graph represents the number of compounds that are either activating (0 to 100) or inhibiting (0 to −100) zDHHC2 activity. […]

Each structure is given as a SMILES string.

As to `CCCCCCCOc1ccc(C(=O)Nc2cccc3c2OC(c2nnn[nH]2)CN3)cc1` (stereo not shown) [TTZ-1, N-(2-(1H-Tetrazol-5-yl)-3,4-dihydro-2H-benzo[b][1,4]oxazin-8-yl)-4-(heptyloxy)benzamide], the inhibition at 4.2 µM came to 32% and the inhibition at 12.5 µM amounted to 61%.
The like results for `O=C(Nc1cccc2c1OC(c1nnn[nH]1)CN2)c1ccc(OCCCCc2ccccc2)cc1` (stereo not shown) [TTZ-2, N-(2-(1H-Tetrazol-5-yl)-3,4-dihydro-2H-benzo[b][1,4]oxazin-8-yl)-4-(4-phenylbutoxy)benzamide] were, in that order, 45% and 69%.

The term inhibition denotes the change of the read-out against control, counted positive when it falls.
